Experimental data published in patent publication US5668137A, “N-heterocyclic sulfonamides having endothelin receptor activity” (Zeneca Ltd., priority 1995, dated 1997).

System: Human ETA or ETB receptors
Assay: Test A: inhibition of [125I]-Endothelin-1 binding to MEL cell membranes expressing recombinant receptor
Details: inhibition of 30 pM [125I]-Endothelin-1 binding, 180 minutes at 30° C., receptor sub-type (ETA or ETB) not stated
Description: The endothelin receptor antagonist activity of compounds of formula I may be assessed in vitro by their ability to inhibit binding of [^125 ]-Endothelin-1 to its receptors. Human ETA or ETB receptors (sub-types of the endothelin receptor) were expressed in Mouse Erythroleukemic Cells (MEL cells) by using standard molecular techniques (for example, as described by Sambrook J., Fritsch E. F. & Maniatis T. (1989) Molecular Cloning: A Laboratory Manual, 2nd Edition, Cold Spring Harbor Press, USA). cDNA sequences encoding the human ETA, and ETB receptor (Hosoda K. et al (1991), FEBS Lett., 287, 23-26 and Sakamoto A. et al, (1991), Biochem. Biophys Res. Comm., 178, 656-663) are subcloned into pBluescript vector followed by insertion into the MEL cell expression vector pEV as described by Needham et al (1992), Nuc. Acids Res., 20, 997-1003. […]
[^125 I]-Endothelin-1 binding to MEL cell membranes was measured in incubation buffer containing 50 mM Tris HCl, 1 mM CaCl2, 0.05% polyoxyethylenesorbitan monolaurate, 0.1% Bovine Serum Albumin (BSA), 0.02% sodium azide pH 7.4 at 30° C. after 180 minutes incubation. […] Nonspecific binding was measured in the presence of 100 nM unlabelled Endothelin-1. […] The filter discs were punched out and counted in a gamma counter. Compounds are tested in triplicate over a range of concentrations and IC50 (or pIC50) values calculated.

pIC50 in Test A: 8.3
Compound: COc1nc(C)cnc1NS(=O)(=O)c1ccccc1-c1ccc(CC(C)C(=O)O)cc1 (stereo not shown) [Example 1, 4'-(2-carboxypropyl)-N-(3-methoxy-5-methylpyrazin-2-yl)-2-biphenylsulphonamide]
